# Data reported in US20230404979A1, “ALPHA-2 […] RECEPTOR AGONISTS TO REDUCE MORTALITY AND IMPROVE OUTCOMES IN VIRAL R[…]” (RUSH UNIVERSITY MEDICAL CENTER, priority 2020, published 2023).
# Like-named read-outs stand apart in the source and are kept apart here.
# Columns and labels:
# [1] = tested on: patients with COVID-19 requiring sedation and invasive mechanical ventilation
# Description: (§1) Data was collected from electronic medical records (EMRs) of Rush University hospitals: Rush University Medical Center; Rush Copley Medical Center; and Rush Oak Park Hospital. Deidentified data was collected from the EMRs by the Rush Bioinformatics and Biostatistics Core. This retrospective cohort study received expedited approval by the Institutional Review Board at Rush University Medical Center.
# We identified patients that were hospitalized at Rush University from Mar. […] Corticosteroids were not excluded because at the time of the study there were no standard practices or guidelines for using this medication in the study population at Rush. Clinical outcomes were assessed from the time of admission to the time of discharge.
# We evaluated patients in each group for age, gender, race, ethnicity, and comorbidities at admission. […] Directly prior to intubation, a sequential organ failure assessment score (SOFA) was calculated for each group, and a PaO2/FiO2 (mmHg) was separately assessed.
# Our primary tool to assess 28-day mortality was multivariable Cox proportional hazards regression.
# (§2) For continuous variables, independent samples t-tests were performed. For each continuous variable, a Levene's test for equality of variances was performed. With significance on Levene's test for heterogeneity of variances, a Mann-Whitney U test was performed. […] Categorical variables were assessed with a Pearson's chi-squared test. If any expected count in a 2×2 table was less than 5, a Fisher's exact test was performed. […] We used p≤0.05 as the threshold for significance.
# Simple imputation using the mean of the immediate preceding and succeeding most severe value over 24 hours was used for missing values for Pao2/Flo2 and mSOFA scores within the 24 hour time period of interest (intubation) (11-13). A complete case analysis was performed (14). All analyses were performed using SPSS version 27.
# [2] = tested on: patients with COVID-19 requiring sedation and invasive mechanical ventilation; settings: for Hospital length of stay / ICU Free days at day 60 / ICU time / Intubation time / Ventilator free days at day 60: mean
# Description: as §1
# We identified patients that were hospitalized at Rush University from Mar. 1, 2020 to Jul. 30, 2020. […] Corticosteroids were not excluded because at the time of the study there were no standard practices or guidelines for using this medication in the study population at Rush. Clinical outcomes were assessed from the time of admission to the time of discharge.
# as §2
# [3] = 90% or greater vs less than 90%
# [4] = time on dexmedetomidine/time on intubation 90% or greater (n=30)
# [5] = time on dexmedetomidine/time on intubation less than 90% (n=122)
smiles,measurement,setting,value
"Cc1cccc([C@H](C)c2cnc[nH]2)c1C [DEX, dexmedetomidine]",relative risk reduction (28-day mortality),"[1]; DEX cohort vs cohort that did not receive DEX, 95% CI 42.4-69.6%",58.2%
same,28-day mortality,"[1]; from start time of intubation, cohort receiving DEX (n=152)",27.0%
same,landmark analysis of 28-day mortality by start time of DEX,"[1]; time cut-offs days 1-22 from intubation, earlier DEX use",lower aHRs and increased significance
same,28-day mortality aHR,"[1]; univariable Cox regression with DEX use as time-varying covariate, (95% CI)",0.56
same,Hospital length of stay,[2]; 90% or greater (n=30),24.37 days
same,ICU Free days at day 60,[2]; 90% or greater (n=30),36.45
same,ICU time,[2]; 90% or greater (n=30),18.76 days
same,Intubation time,[2]; 90% or greater (n=30),9.61 days
same,Ventilator free days at day 60,[2]; 90% or greater (n=30),43.63
same,"Hospital length of stay, Difference Between Groups",[2]; [3],-1.38 days
same,"ICU Free days at day 60, Difference Between Groups",[2]; [3],11.48
same,"ICU time, Difference Between Groups",[2]; [3],-1.83 days
same,"Intubation time, Difference Between Groups",[2]; [3],-5.92 days
same,"Ventilator free days at day 60, Difference Between Groups",[2]; [3],15.55
same,"In-hospital mortality, Risk Ratio",[2]; 90% or greater vs less than 90% of intubation time on dexmedetomidine,0.277
same,Hospital length of stay,[2]; less than 90% (n=122),25.75 days
same,ICU Free days at day 60,[2]; less than 90% (n=122),24.98
same,ICU time,[2]; less than 90% (n=122),20.59 days
same,Intubation time,[2]; less than 90% (n=122),15.53 days
same,Ventilator free days at day 60,[2]; less than 90% (n=122),28.08
same,In-hospital mortality (%),[2]; [4],(10.0%)
same,In-hospital mortality (count),[2]; [4],3/30
same,In-hospital mortality (%),[2]; [5],(36.1%)
same,In-hospital mortality (count),[2]; [5],44/122
